pIC50: −log10 of the molar value.
Target: T1, Acetylcholinesterase (Rattus norvegicus, UniProt P37136)
T1 sequence (P37136 whole entry): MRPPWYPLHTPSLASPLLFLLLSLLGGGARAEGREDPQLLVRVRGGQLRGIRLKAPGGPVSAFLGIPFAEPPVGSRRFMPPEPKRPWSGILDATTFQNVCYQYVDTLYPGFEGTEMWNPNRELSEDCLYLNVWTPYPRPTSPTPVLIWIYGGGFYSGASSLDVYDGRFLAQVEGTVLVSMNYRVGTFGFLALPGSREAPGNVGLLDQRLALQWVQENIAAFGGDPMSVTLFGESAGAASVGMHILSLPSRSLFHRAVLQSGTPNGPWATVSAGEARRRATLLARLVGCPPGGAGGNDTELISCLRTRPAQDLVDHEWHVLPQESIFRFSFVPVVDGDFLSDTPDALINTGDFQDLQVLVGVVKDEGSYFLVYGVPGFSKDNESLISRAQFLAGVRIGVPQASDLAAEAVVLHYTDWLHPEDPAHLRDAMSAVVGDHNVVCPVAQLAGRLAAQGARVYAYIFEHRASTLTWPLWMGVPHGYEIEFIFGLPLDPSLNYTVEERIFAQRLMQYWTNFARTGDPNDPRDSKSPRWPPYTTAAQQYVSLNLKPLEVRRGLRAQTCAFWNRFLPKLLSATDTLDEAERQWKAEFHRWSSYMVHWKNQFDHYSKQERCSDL
Experiment: In vitro inhibitory activity against Acetylcholinesterase (AChE) using rat brain hippocampal crude homogenates.
Assay type: tissue-based, Hippocampus

SMILES: CC1=CC2Cc3nc(O)ccc3C(N)(C1)/C2=C/CF (stereo unspecified)
- pIC50: 5.00

Reference: ChEMBL document CHEMBL1130862, “Synthesis and acetylcholinesterase inhibitory activity of (+/-)-14-fluorohuperzine A” (Bioorg Med Chem Lett, 1998)
